Measurements from patent US7517884B2 (Kalypsys Inc., priority 1998, dated 2009).

Tests used:
PPAR-alpha = biological target: T1, PPAR-alpha (UniProt Q07869); experiment: PPAR-alpha transactivation assay (GAL4 chimera, luciferase reporter) in CV-1 cells; type: cell-based, murine and human; conditions: GAL4-PPAR LBD chimera
T1 sequence (Q07869 1-468): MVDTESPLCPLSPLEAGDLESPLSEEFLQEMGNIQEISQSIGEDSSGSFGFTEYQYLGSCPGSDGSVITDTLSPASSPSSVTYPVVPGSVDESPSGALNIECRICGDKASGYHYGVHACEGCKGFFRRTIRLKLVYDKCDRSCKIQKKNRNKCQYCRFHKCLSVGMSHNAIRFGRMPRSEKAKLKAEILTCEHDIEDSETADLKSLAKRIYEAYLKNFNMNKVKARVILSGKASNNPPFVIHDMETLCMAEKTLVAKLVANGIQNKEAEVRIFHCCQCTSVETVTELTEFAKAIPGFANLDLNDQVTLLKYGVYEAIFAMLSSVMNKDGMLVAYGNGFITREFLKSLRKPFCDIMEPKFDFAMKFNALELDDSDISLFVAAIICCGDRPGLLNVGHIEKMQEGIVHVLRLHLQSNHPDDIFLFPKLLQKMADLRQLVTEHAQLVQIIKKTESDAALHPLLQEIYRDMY
Method in brief: (§1)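 CV-1 cells transiently transfected with murine or human PPAR-alpha, -gamma or -delta ligand-binding domain fused to GAL4 DNA-binding domain plus a GAL4-site luciferase reporter. After replating in phenol-red-free DME with 5% delipidated calf serum, cells were exposed to compound 20-24 h; luciferase read-out gave EC50.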

PPAR-delta = biological target: T2, PPAR-delta (UniProt Q03181); experiment: PPAR-delta transactivation assay (GAL4 chimera, luciferase reporter) in CV-1 cells; type: cell-based, murine and human; conditions: GAL4-PPAR LBD chimera
T2 sequence (Q03181 1-441): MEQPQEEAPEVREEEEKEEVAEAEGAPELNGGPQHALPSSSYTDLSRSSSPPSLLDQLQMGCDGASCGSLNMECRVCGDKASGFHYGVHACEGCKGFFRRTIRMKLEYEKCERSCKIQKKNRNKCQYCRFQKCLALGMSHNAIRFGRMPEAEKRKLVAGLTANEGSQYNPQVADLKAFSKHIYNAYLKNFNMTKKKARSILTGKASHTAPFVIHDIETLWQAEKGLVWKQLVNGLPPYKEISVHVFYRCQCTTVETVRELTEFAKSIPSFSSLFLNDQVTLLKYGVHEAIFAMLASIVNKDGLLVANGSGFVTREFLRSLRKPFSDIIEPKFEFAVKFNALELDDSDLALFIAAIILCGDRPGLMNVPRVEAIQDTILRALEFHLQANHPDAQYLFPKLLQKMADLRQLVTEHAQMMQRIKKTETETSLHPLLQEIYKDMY
Method in brief: as §1

PPAR-gamma = biological target: T3, PPAR-gamma (UniProt P37231); experiment: PPAR-gamma transactivation assay (GAL4 chimera, luciferase reporter) in CV-1 cells; type: cell-based, murine and human; conditions: GAL4-PPAR LBD chimera
T3 sequence (P37231 1-505): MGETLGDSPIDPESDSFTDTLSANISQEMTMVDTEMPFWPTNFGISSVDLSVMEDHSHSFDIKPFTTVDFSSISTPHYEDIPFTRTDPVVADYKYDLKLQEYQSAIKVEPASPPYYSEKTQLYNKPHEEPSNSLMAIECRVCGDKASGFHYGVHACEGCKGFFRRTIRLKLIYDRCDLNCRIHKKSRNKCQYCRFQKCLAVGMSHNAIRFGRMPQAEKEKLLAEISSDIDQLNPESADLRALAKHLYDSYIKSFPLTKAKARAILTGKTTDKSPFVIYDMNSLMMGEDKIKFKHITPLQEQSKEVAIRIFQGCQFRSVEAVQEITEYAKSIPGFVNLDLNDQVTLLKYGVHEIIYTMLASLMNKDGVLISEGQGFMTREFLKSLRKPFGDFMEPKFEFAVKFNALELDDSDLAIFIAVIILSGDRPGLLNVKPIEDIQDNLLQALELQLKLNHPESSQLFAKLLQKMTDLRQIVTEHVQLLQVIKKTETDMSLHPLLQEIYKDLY
Method in brief: as §1

[1] = system: Diet-Induced Obesity (DIO) in Mice; experiment: Model of Diet-Induced Obesity (DIO) in mice, dose ranging study; type: in vivo, C57B1/6j mice; conditions: HFD, 1.5 mg/kg BID
Excerpt: Evaluation of Pharmacological Efficacy of a Compound of the Invention in a Model of Diet-Induced Obesity (DIO) in Mice
Metabolic syndrome in humans is characterized by abdominal obesity, high triglycerides, impaired fasting glucose and hyperinsulinemia. In the DIO model, mice are fed high fat diet (HFD, Research diet D12492, Research Diet, NJ) diet (58% lard) for the entire period of the study. Compared to normal chow (NC, Harlan-Tekland #8604, WI) fed animals the HF fed mice develop several features of metabolic syndrome such as, hypertriglyceridemia, hyperinsulinemia and mild hyperglycemia, as early as two weeks, on this diet. […] This model was used to evaluate the pharmacological effects of a compound of the invention selected from the group consisting of Examples 1-141 (referred to for the purposes of this study as “Compound (I)”) in mitigating several features of HFD induced metabolic syndrome in rodents.
C57B1/6j mice (n=5) were fed ad libitum with either the HFD (58% fat) or NC (5%) diet for 3 weeks prior to start of experiment, and throughout the course of the experiment (45 days). Starting on Day 1, mice were dosed BID with either Compound (I)+vehicle, vehicle alone, or GW501516, a known PPARδ modulator in clinical development by Glaxo-Wellcome, for the entire period of the study. Animals were the assessed for body weight gain, food intake, triglyceride (TG), insulin, and glucose levels under fasting and postprandial (PP) conditions. Animals were weighed twice weekly in the morning to determine body weight gain. Plasma or serum was separated from whole blood (Sarstedt) and TG levels were assayed with a TG kit (Thermo Electron Corporation, TX). Plasma insulin levels were assayed using the ultrasensitive mouse Insulin ELISA immunoassay (American Laboratory Products Company). Total cholesterol, HDLc and LDLc was measured to evaluate pharmacological efficacy at various time points during the study and serum transaminases were measured to evaluate any potential toxicity of the compound. These measurements were performed with a chemistry analyzer at Labcorp of America, NC.

SMILES	EC50 (PPAR-alpha)	EC50 (PPAR-delta)	EC50 (PPAR-gamma)	% change in body weight (d0 vs d40) [1]	Insulin [1]	TG [1]
C[C@@H]1CN(c2cccc(OC(F)(F)F)c2)C[C@H](C)N1S(=O)(=O)c1cccc2c1CC(C(=O)O)C2 (stereo partly drawn) [Example 115, 4-[cis-2,6-dimethyl-4-(3-trifluoromethoxyphenyl)piperazin-1-ylsulfonyl]-2,3-dihydro-1H-indene-2-carboxylic acid]	> 100 µM	< 5 µM	5 to 100 µM	–	–	–
C[C@H]1CN(S(=O)(=O)c2cccc3c2CC(C(=O)O)C3)[C@@H](C)CN1c1ccc(C(F)(F)F)cn1 (stereo partly drawn) [Example 116, 4-[2S,5S-dimethyl-4-(5-trifluoromethyl-pyridin-2-yl)-piperazine-1-sulfonyl]-indan-2(R,S)-carboxylic acid]	5 to 100 µM	< 5 µM	5 to 100 µM	–	–	–
O=C(O)C1Cc2cccc(S(=O)(=O)N3C4CCCC3CN(c3ccc(OC(F)(F)F)cc3)C4)c2C1 (stereo not drawn) [Example 117, 4-[3-(4-trifluoromethoxy-phenyl)-3,9-diaza-bicyclo[3.3.1]nonane-9-sulfonyl]-indan-2-carboxylic acid]	5 to 100 µM	< 5 µM	5 to 100 µM	–	–	–
C[C@@H]1CN(c2ccc(Cl)c(Br)c2)C[C@H](C)N1S(=O)(=O)c1cccc2c1CC(C(=O)O)C2 (stereo partly drawn) [Example 120, 4-(4-(3-bromo-4-chlorophenyl)-cis-2,6-dimethylpiperazin-1-ylsulfonyl)-2,3-dihydro-1H-indene-2-carboxylic acid]	> 100 µM	< 5 µM	> 100 µM	–	–	–
C[C@@H]1CN(c2cc(F)c(C(F)(F)F)c(F)c2)C[C@H](C)N1S(=O)(=O)c1cccc2c1CC(C(=O)O)C2 (stereo partly drawn) [Example 121, 4-(4-(3,5-Difluoro-4-(trifluoromethyl)phenyl)-cis-2,6-dimethylsulfonyl)-2,3-dihydro-1H-indene-2-carboxylic acid]	5 to 100 µM	< 5 µM	> 100 µM	–	–	–
C[C@@H]1CN(c2ccc(C(F)(F)F)c(Br)c2)C[C@H](C)N1S(=O)(=O)c1cccc2c1CC(C(=O)O)C2 (stereo partly drawn) [Example 122, 4-(4-(3-Bromo-4-(trifluoromethyl)phenyl)-cis-2,6-dimethylpiperazin-1-ylsulfonyl)-2,3-dihydro-1H-indene-2-carboxylic acid]	> 100 µM	< 5 µM	> 100 µM	–	–	–
C[C@@H]1CN(c2cc(F)cc(F)c2Cl)C[C@H](C)N1S(=O)(=O)c1cccc2c1CC(C(=O)O)C2 (stereo partly drawn) [Example 123, 4-(4-(2-Chloro-3,5-difluorophenyl)-cis-2,6-dimethylpiperazin-1-ylsulfonyl)-2,3-dihydro-1H-indene-2-carboxylic acid]	> 100 µM	5 to 100 µM	> 100 µM	–	–	–
C[C@@H]1CN(c2cc(F)c(Cl)c(F)c2)C[C@H](C)N1S(=O)(=O)c1cccc2c1CC(C(=O)O)C2 (stereo partly drawn) [Example 124, 4-(4-(4-Chloro-3,5-difluorophenyl)-cis-2,6-dimethylpiperazin-1-ylsulfonyl)-2,3-dihydro-1H-indene-2-carboxylic acid]	> 100 µM	< 5 µM	> 100 µM	–	–	–
O=C(O)C1Cc2cccc(S(=O)(=O)N3C4CSCC3CN(c3ccc(OC(F)(F)F)cc3)C4)c2C1 (stereo not drawn) [Example 125, 4-(7-(4-(Trifluoromethoxy)phenyl)-3-thia-7,9-diazabicyclo|3.3.1|nonan-9-ylsulfonyl)-2,3-dihydro-1H-indene-2-carboxylic acid]	> 100 µM	< 5 µM	> 100 µM	–	–	–
C[C@@H]1CN(c2ccc(Cl)cc2)C[C@H](C)N1S(=O)(=O)c1cccc2c1CC(C(=O)O)C2 (stereo partly drawn) [Example 126, 4-[4-(4-Chlorophenyl)-cis-2,6-dimethylpiperazin-1-ylsulfonyl]-2,3-dihydro-1H-indene-2-carboxylic acid]	> 100 µM	< 5 µM	> 100 µM	–	–	–
C[C@@H]1CN(c2ccc(Cl)c(OC(F)(F)F)c2)C[C@H](C)N1S(=O)(=O)c1cccc2c1CC(C(=O)O)C2 (stereo partly drawn) [Example 131, 4-|4-(4-Chloro-3-trifluoromethoxyphenyl)-cis-2,6-dimethylpiperazine-1-ylsulfonyl|-2,3-dihydro-1H-indene-2-carboxylic acid]	> 100 µM	< 5 µM	> 100 µM	–	–	–
C[C@@H]1CN(c2ccc(Cl)c(F)c2)C[C@H](C)N1S(=O)(=O)c1cccc2c1CC(C(=O)O)C2 (stereo partly drawn) [Example 132, 4-|4-(4-Chloro-3-fluorophenyl)-cis-2,6-dimethylpiperazin-1-ylsulfonyl|-2,3-dihydro-1H-indene-2-carboxylic acid]	> 100 µM	< 5 µM	> 100 µM	–	–	–
COc1cc(N2C[C@@H](C)N(S(=O)(=O)c3cccc4c3CC(C(=O)O)C4)[C@@H](C)C2)ccc1Cl (stereo partly drawn) [Example 133, 4-|4-(4-Chloro-3-methoxyphenyl)-cis-2,6-dimethylpiperazine-1-ylsulfonyl|-2,3-dihydro-1H-indene-2-carboxylic acid]	> 100 µM	< 5 µM	> 100 µM	–	–	–
C[C@@H]1CN(c2ccc(Cl)c(C(F)(F)F)c2)C[C@H](C)N1S(=O)(=O)c1cccc2c1CC(C(=O)O)C2 (stereo partly drawn) [Example 134]	> 100 µM	< 5 µM	> 100 µM	–	–	–
Cc1cc(N2C[C@@H](C)N(S(=O)(=O)c3cccc4c3CC(C(=O)O)C4)[C@@H](C)C2)ccc1Cl (stereo partly drawn) [Example 135, 4-|4-(4-Chloro-3-methylphenyl)-cis-2,6-dimethylpiperazin-1-ylsulfonyl|-2,3-dihydro-1H-indene-2-carboxylic acid]	> 100 µM	< 5 µM	> 100 µM	–	–	–
CCc1ccc(N2C[C@@H](C)N(S(=O)(=O)c3cccc4c3CC(C(=O)O)C4)[C@@H](C)C2)cc1 (stereo partly drawn) [Example 136, 4-|4-(4-Ethylphenyl)-cis-2,6-dimethylpiperazin-1-ylsulfonyl|-2,3-dihydro-1H-indene-2-carboxylic acid]	> 100 µM	< 5 µM	> 100 µM	–	–	–
Cc1ccc(N2C[C@@H](C)N(S(=O)(=O)c3cccc4c3CC(C(=O)O)C4)[C@@H](C)C2)cc1C (stereo partly drawn) [Example 137, 4-|4-(3,4-Dimethylphenyl)-cis-2,6-dimethylpiperazin-1-ylsulfonyl|-2,3-dihydro-1H-indene-2-carboxylic acid]	> 100 µM	< 5 µM	> 100 µM	–	–	–
Cc1cc(SCc2sc(-c3ccc(C(F)(F)F)cc3)nc2C)ccc1OCC(=O)O [GW516]	–	–	–	10.6%	1.3 ± 0.3 ng/mL	268 ± 56 mg/dL
